From article PMC12428754, “Testing Strategies for Metabolite-Mediated Neurotoxicity” (International Journal of Molecular Sciences, 2025)

Columns and labels:
LUHMES cells = details: rat liver S9 50 µg/mL in testing module, 2 h preincubation, RFP-LUHMES; toxicity increased with NADPH
Description: Figure 4 A strategy to incorporate metabolic competence into in vitro DNT testing methods. (A) A schematic overview of a sequential metabolism and testing approach. The “metabolisation module” uses hepatic post-mitochondrial fractions (S9) to generate metabolite mixtures in the presence or absence of cofactors (NADPH, glucose-6-phosphate, MgCl2). These metabolite mixtures are tested in the “testing module” in a concentration-dependent manner after serial pre-dilutions. Metabolite mixtures are added as a fraction of 10% to the media volume of the “testing module”. The testing module may be a cell-based neurotoxicity (NT) or developmental neurotoxicity (DNT) assay, such as the neurite outgrowth or migration assay. Here, the Mito-Met neurite outgrowth assay, as in Figure 1, was used. […] The curves represent data from three independent experiments and were fitted using a four-parameter Hill function. […] The data represent three independent experiments. The indicated concentrations are “testing module” concentrations.
To further evaluate our modular pre-activation strategy for identifying metabolite-mediated hazard, we tested a broader panel of compounds. For each compound (parent), a single concentration was used in the metabolisation module. The metabolite mixtures were generated in the absence or presence of NADPH. These metabolite mixtures were serially diluted and assessed using the MitoMet neurite outgrowth assay. As a measure of potency, EC25 values were determined, and potency ratios were calculated to compare the effects of NADPH-dependent versus NADPH-independent metabolism.
Figure 5 The effect of NADPH-dependent hepatic metabolism on the DNT of selected compounds. (A) A strategy scheme to assess the effect of metabolic enzymes on the outcome of cell-based DNT assays. Metabolite mixtures are generated using the NADPH-(in)dependent metabolic activity of S9. NADPH-independent metabolism is shown in green (light grey). NADPH-dependent metabolism is shown in red (dark grey). […] (B–F) The concentration-dependent effect of metabolite mixtures on neurite outgrowth was measured as in Figure 1, with the following modifications: red-fluorescent-protein (RFP)-expressing LUHMES cells were used. As the assay endpoint, the RFP fluorescence of neurites was used instead of calcein staining. The curves represent data from three independent experiments and were fitted using a four-parameter Hill function. From this, an EC25 was calculated. Bold numbers indicate the fold changes between EC25 values of the NADPH-(in)dependent metabolite mixtures, with the direction of the arrow reflecting the shift in sensitivity. Note that the x-axes indicate nominal concentrations of parent compounds. […] Similar images were used for neurite quantification. The right image (red frame) of the pairs was obtained with NADPH. The black arrowheads above the curves indicate the experimental conditions used to record images. The scale bar in orange corresponds to 50 µm.
The MitoMet neurite outgrowth assay was performed as previously described. In brief, all cell culture dishes and flasks were pre-coated with 50 μg/mL poly-l-ornithine (PLO) and 1 μg/mL fibronectin. Proliferating LUHMES cells were maintained in AdvDMEM/F12 containing L-glutamine (2 mM), N2 supplement (1x), and FGF (40 ng/mL). For pre-differentiation, the cells were replated at a density of 46,000 cells/cm^2 one day prior to the induction of differentiation (defined as the day of differentiation, Day −1). Differentiation was initiated by exchanging the culture medium for AdvDMEM/F12 supplemented with L-glutamine (2 mM), N2 supplement (1x), dibutyryl-cAMP (1 mM), tetracycline (1 µg/mL), and GDNF (2 ng/mL). After two days of differentiation (Day 2), the cells were replated (100,000 cells/cm^2) into 96-well plates.

[1] = tested on: hiPSC-derived neural crest-like cells; assay: S9 metabolisation module followed by cMINC migration assay; format: cell-based, human; details: for EC25 migration (+NADPH): metabolite mixture generated with NADPH; for EC25 migration (+NADPH) / EC25 migration (−NADPH): nominal concentration of parent; for EC25 migration (−NADPH): metabolite mixture generated without NADPH; for fold change of potency (EC25) between NADPH-independent and -dependent metabolite mixtures: potency increased with NADPH
Description: Figure 6 The transfer of the metabolisation module to the neural crest cell migration assay (cMINC). (A) A schematic of the cMINC (circular migration of neural crest cells) assay. The cells were seeded around a central stopper to create a cell-free circular area. Migration was initiated 24 h after seeding by removing the stopper. This is defined as the day of migration (DoM) 0. On DoM 1, the cells were exposed to toxicants. After 24 h of exposure, both cell migration and viability were quantified, using automated high-content imaging. (B) Compatibility of the metabolisation module (preincubation with 500 µg/mL S9 at 37 °C for 2 h) with the cMINC assay: The setup was as described in Figure 4 and as exemplified in Figure 5A. No compound was added (solvent control). The S9 mixture (at 500 µg/mL ± NADPH) was added to the normal cell culture medium of the cMINC assay (so that the addition was 10% of the total volume). Data are from three independent experiments. (C,D) The concentration-dependent effects on migration were evaluated for metabolite mixtures generated from bromethalin (C) or chlorfenapyr (D). […] The arrows indicate the direction of sensitivity shift between NADPH-dependent and -independent metabolite mixtures, with accompanying fold change values. The concentrations are given as nominal concentrations of the parent compound. Abbreviations: n.s., not significant. TEXT PRINTED IN THE PICTURE: (C) Bromethalin: x30 | (D) Chlorfenapyr: x15
The MINC assay was performed as previously described. Briefly, 96-well plates were prepared by inserting a central 2 mm diameter stopper (Platypus Technologies, Madison, WI, USA) into pre-coated wells with a composite poly-L-ornithine (PLO; 10 µg/mL), fibronectin (1 µg/mL), and laminin (1 µg/mL) matrix. Cryopreserved human induced pluripotent stem cell (hiPSC)-derived neural crest-like cells were thawed and seeded at a density of 95,000 cells/cm^2 around the stopper to create a defined, cell-free circular area. The cells were cultured in N2-S medium supplemented with […] of the cytokines EGF and FGF. After 24 h, the stoppers were removed and the medium refreshed to initiate cell migration into the cell-free centre (defined as the day of migration, DoM 0). On DoM 1, the cells were exposed to test compounds by the addition of a 5× concentrated toxicant solution. After a further 24 h (DoM 2), cell migration and viability were assessed. The cells were stained with 0.5 µM calcein-AM and 1 µg/mL Hoechst 33342 (both from Sigma-Aldrich, Steinheim, Germany). High content imaging was performed, and data were analysed using the RingAssay V1 software (http://invitrotox.uni-konstanz.de/, accessed on 3 February 2025).
In the first step, matched technical replicates were averaged. […] For visualisation, GraphPad Prism 9 was used.
The supernatant was used further.

SMILES	fold change between EC25 values of NADPH-independent and NADPH-dependent metabolite mixtures (toxification) (LUHMES cells) [x]	EC25 migration (+NADPH) [1] [nM]	EC25 migration (−NADPH) [1] [nM]	fold change of potency (EC25) between NADPH-independent and -dependent metabolite mixtures [1]
CN(c1c(Br)cc(Br)cc1Br)c1c([N+](=O)[O-])cc([N+](=O)[O-])cc1C(F)(F)F [Bromethalin]	8	26	790	about 30 fold
CCOCn1c(-c2ccc(Cl)cc2)c(C#N)c(Br)c1C(F)(F)F [Chlorfenapyr]	> 6	600	9000	15 fold
